Patent US12570657B2, “Mesylate salts of heterocyclic cytokinins, compositions containing these derivatives and use thereof” (UNIVERZITA PALACKEHO V OLOMOUCI, priority 2020, dated 2026)
Where two headings read alike, the source gives them in different places. Values belong to the molecule of their own block, whether it stands above or below them.

How the values were obtained:
[1] = tested on: cytokinin-dependent tobacco callus; assay: Tobacco callus biotest (stimulation of plant cell division); type: cell-based, Nicotiana tabacum L. cv. Wisconsin 38; settings: callus growth at concentration with highest activity; 10^−5 M BAP = 100%
[2] = tested on: K562 (chronic myeloid leukemia); assay: In vitro cytotoxicity, Calcein AM assay, K-562; type: cell-based; settings: 3-day Calcein-AM assay
How it was run: (§1)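 Metabolic viability assay, 72 h compound exposure of cells pre-incubated 12 h after seeding (~10,000 cells/well, 10% FBS, 2 mM L-glutamine); 1 h Calcein AM at 1 μg/ml final, green fluorescence measured against DMSO-treated controls.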

[3] = Aqueous solubility: concentration of saturated solution by HPLC; type: physicochemical; settings: for solubility thermodynamic: thermodynamic from solid
Protocol: Aqueous solubility was measured using the following protocol. Supersaturated solution of meta-topolin mesylate salt was prepared. The solutions were filtered off from visible undissolved particles of the salt to obtain homogenic saturated solution. Saturated solution was diluted 1:10 000 and measured using HPLC Alliance Waters 2690 with C18 Symmetry column with the diameter 2.1 mm and 150 mm length with a porosity of 5 μm. The sample was dissolved in the mobile phase (MeOH: HCOONH4-1:9). The sample was washed with a methanol gradient (10-90%, 35 min) at pH 4 and a flow rate of 0.3 ml/min. The absorbances of the components were detected in the UV region at 210-400 nm. The peak area of meta-topolin mesylate salt was 595 027. The standard was measured as shown in the Table 9 below, Obtained peak area was compared to area peaks measured at certain concentration and the final concentration of saturated solution was determined
Solubility of other cytokinin (CK) mesylates was also determined by this method and the concentrations of saturated solutions are given below in Table 10: […]

[4] = tested on: MCF-7 (breast adenocarcinoma); assay: In vitro cytotoxicity, Calcein AM assay, MCF7; type: cell-based; settings: 3-day Calcein-AM assay
How it was run: as §1

[5] = tested on: winter wheat leaf segments; assay: Senescence bioassay: retention of chlorophyll in excised winter wheat leaf tips; type: in vivo, Triticum aestivum cv. Hereward; settings: chlorophyll retention at concentration with highest activity; 10^−4 M BAP = 100%
Protocol: Seeds of winter wheat, Triticum aestivum cv. Hereward, were washed under running water for 24 hours and then sown on vermiculite soaked with Knop's solution. They were placed in a growth chamber at 25° C. with a 16/8 h light/dark period at 50 μmol·m^−2·s^−1. After 7 days, the first leaf was fully developed and the second leaf had started to grow. A tip section of the first leaf, approximately 35 mm long, was removed from 5 seedlings and trimmed slightly to a combined weight of 100 mg. The basal ends of the five leaf tips were placed in the wells of a microtiter polystyrene plate containing 150 μl of each tested compound solution. The entire plate was inserted into a plastic box lined with paper tissues soaked in distilled water to prevent leaf sections from drying out. After 96 h incubation in the dark at 25° C., the leaves were removed and chlorophyll extracted by heating at 80° C. for 10 min in 5 ml of 80% ethanol (v/v). The sample volume was then restored to 5 ml by the addition of 80% ethanol (v/v). The absorbance of the extract was recorded at 665 nm. In addition, chlorophyll extracts from fresh leaves and leaf tips incubated in deionised water were measured. […] Relative activity of the compound at this concentration was calculated (Tab. 3). The activity obtained for 10^−4 M 6-benzylaminopurine (BAP) was postulated as 100%. The values shown are means of five replicates and the whole experiment was repeated twice. The tested cytokinin bases were dissolved in dimethylsulfoxide (DMSO) and the solution brought up to 10^−3 M with distilled water. Cytokinin mesylate salts which are more water-soluble (BAP mesylate, meta-topolin mesylate and kinetin mesylate) could be directly dissolved to form a 10^−3 M solution in distilled water.

[6] = tested on: Spring barley (variety Francin); assay: Field trial: grain yield and productive tillers of spring barley after foliar spray; type: in vivo; settings: for Length of plants / Medium tillers (number) / Number of spikes per square meter / SUM of tillers / Strong tillers (number) / Weak tillers (number) / Grain yield (t/ha) at 14% humidity / Grain yield, % compared to control / Length of plants, % compared to control / Medium tillers, % compared to control / Number of spikes per square meter, % compared to control / SUM of tillers, % compared to control / Strong tillers, % compared to control / Weak tillers, % compared to control: 5 uMol; for Length of plants / Medium tillers (number) / Number of spikes per square meter / SUM of tillers / Strong tillers (number) / Weak tillers (number) / Grain yield, % compared to control / Length of plants, % compared to control / Medium tillers, % compared to control / Number of spikes per square meter, % compared to control / SUM of tillers, % compared to control / Strong tillers, % compared to control / Weak tillers, % compared to control: application BBCH 31-33; for Grain yield (t/ha) at 14% humidity: application BBCH 31-33, spring barley; for Grain yield, % compared to control / Length of plants, % compared to control / Medium tillers, % compared to control / Number of spikes per square meter, % compared to control / SUM of tillers, % compared to control / Strong tillers, % compared to control / Weak tillers, % compared to control: untreated control = 100; for Grain yield: foliar spray 300 l/ha, BBCH 31-33
Protocol: Spring barley (variety Francin) was treated in 2019 at the locality in Olomouc, sprayed with substances—marked BAP (benzylaminopurine), meta-topolin mesylate and BAP mesylate. The seed was 3.5 million germinating seeds, the experiment was established in 5 randomized replicates for each variant, the control was an untreated variant. The experiment was performed according to the GEP (Good Experimental Practice) methodology, the size of individual plots was 10 m^2. The application of the substances was carried out at a rate of 300 l/ha, in the growth phase BBCH 31-33 (beginning of peeling).

[7] = tested on: retinal epitelium cells ARPE-19; assay: Cytotoxicity for non-cancer cells, resazurine reduction assay, ARPE-19
Protocol: It is used for viability testing of both bacterial and eukaryotic cells. […] Cultivation medium was DMEM with 10% FBS. Before the experiment, the cells were subcultured for 2 weeks. For the cytotoxicity evaluation, the cells were trypsinized and pipetted into 96 well plates (5000 cells per well in 80 microliters). After 24 hours, 5× concentrated solutions of the tested compounds in the medium were added. […] IC50 values were calculated from dose response curves using drc library for R programming environment.

[8] = saturated solution in water, free cytokinin base, read-out: c of free CK base
[9] = saturated solution in water, cytokinin mesylate, read-out: c of CK mesylate
[10] = resazurin, 72 hour treatment, ARPE-19

SMILES: CS(=O)(=O)O.c1ccc(CNc2ncnc3nc[nH]c23)cc1 [BAP mesylate, 6-benzylaminopurine mesylate]
activity (%) [10^−5 mol · l^−1 BAP = 100%] [1]: 104% | IC50 ([2]; mesylate): > 167 µM | solubility thermodynamic [3, 9]: 354000 µM | IC50 ([4]; mesylate): > 167 µM | Length of plants [6]: 83.2 cm | Medium tillers (number) [6]: 1.35 | Number of spikes per square meter [6]: 758.4 | SUM of tillers [6]: 6.35 | Strong tillers (number) [6]: 2.75 | Weak tillers (number) [6]: 2.25 | Grain yield (t/ha) at 14% humidity [6]: 7.74 t/ha | Grain yield, % compared to control [6]: 104.34% | Length of plants, % compared to control [6]: 100.48% | Medium tillers, % compared to control [6]: 64.29% | Number of spikes per square meter, % compared to control [6]: 112.06% | SUM of tillers, % compared to control [6]: 110.43% | Strong tillers, % compared to control [6]: 152.78% | Weak tillers, % compared to control [6]: 121.62% | Grain yield [6]: 104.34 % at control | activity (%) [10^−4 mol · l^−1 BAP = 100%] [5]: 108% | Cytotoxicity for Fibroblasts (GI20) ARPE-19 [7, 10]: >100 μM

SMILES: c1ccc(CNc2ncnc3nc[nH]c23)cc1 [BAP, 6-benzylaminopurine]
activity (%) [10^−5 mol · l^−1 BAP = 100%] [1]: 100% | IC50 ([2]; Homo sapiens, K562, 72 h): 139 µM | solubility thermodynamic ([3]; water): 370 µM | IC50 ([4]; Homo sapiens, MCF7, 72 h): 166 µM | Length of plants [6]: 82.5 cm | Medium tillers (number) [6]: 1.7 | Number of spikes per square meter [6]: 752 | SUM of tillers [6]: 6.6 | Strong tillers (number) [6]: 2.8 | Weak tillers (number) [6]: 2.1 | Grain yield (t/ha) at 14% humidity [6]: 7.42 t/ha | Grain yield, % compared to control [6]: 100.13% | Length of plants, % compared to control [6]: 99.64% | Medium tillers, % compared to control [6]: 80.95% | Number of spikes per square meter, % compared to control [6]: 111.11% | SUM of tillers, % compared to control [6]: 114.78% | Strong tillers, % compared to control [6]: 155.56% | Weak tillers, % compared to control [6]: 113.51% | Grain yield [6]: did not affect grain yield | activity (%) [10^−4 mol · l^−1 BAP = 100%] [5]: 100% | Cytotoxicity for Fibroblasts (GI20) ARPE-19 ([7]; human, 72 h): >100 μM

SMILES: CS(=O)(=O)O.Oc1cccc(CNc2ncnc3nc[nH]c23)c1 [mT mesylate, 6-(3-hydroxybenzylamino)purine mesylate]
activity (%) [10^−5 mol · l^−1 BAP = 100%] [1]: 111% | IC50 ([2]; mesylate): 142 µM | c of CK mesylate ([3]; saturated solution in water, cytokinin mesylate): 24,011 mM | solubility thermodynamic [3, 9]: 24000 µM | concentration of saturated solution ([3]; water): approximately 24010,81 μM | solubility thermodynamic ([3]; water, read-out: concentration of saturated solution): 8000 µg/mL | Grain yield [6]: 108.03 % at control | activity (%) [10^−4 mol · l^−1 BAP = 100%] [5]: 109% | Cytotoxicity for Fibroblasts (GI20) ARPE-19 [7, 10]: >100 μM

Continued, in another order:

solubility thermodynamic [3, 8]: 210 µM
SMILES: COc1cccc(CNc2ncnc3nc[nH]c23)c1 [3MeOBAP, 6-(3-methoxybenzylamino)purine]
activity (%) [10^−5 mol · l^−1 BAP = 100%] [1]: 76% | IC50 ([2]; Homo sapiens, K562, 72 h): > 167 µM | IC50 ([4]; Homo sapiens, MCF7, 72 h): > 167 µM | activity (%) [10^−4 mol · l^−1 BAP = 100%] [5]: 101%

solubility thermodynamic [3, 8]: 60 µM | concentration of saturated solution ([3]; water): 60 µg/mL
SMILES: Oc1cccc(CNc2ncnc3nc[nH]c23)c1 [meta-topolin (mT), 6-(3-hydroxybenzylamino)purine]
activity (%) [10^−5 mol · l^−1 BAP = 100%] [1]: 105% | IC50 ([2]; Homo sapiens, K562, 72 h): 128 µM | IC50 ([4]; Homo sapiens, MCF7, 72 h): > 167 µM | activity (%) [10^−4 mol · l^−1 BAP = 100%] [5]: 117% | Cytotoxicity for Fibroblasts (GI20) ARPE-19 [7, 10]: >100 μM

solubility thermodynamic [3, 8]: 30 µM
SMILES: Oc1ccccc1CNc1ncnc2nc[nH]c12 [ortho-topolin (oT), 6-(2-hydroxybenzylamino)purine]
activity (%) [10^−5 mol · l^−1 BAP = 100%] [1]: 86% | IC50 ([2]; Homo sapiens, K562, 72 h): > 167 µM | IC50 ([4]; Homo sapiens, MCF7, 72 h): > 167 µM | activity (%) [10^−4 mol · l^−1 BAP = 100%] [5]: 67% | Cytotoxicity for Fibroblasts (GI20) ARPE-19 [7, 10]: >100 μM
